Among the data in patent US4608390A, “Lipoxygenase inhibiting compounds” (Abbott Laboratories, priority 1985, dated 1986) are inhibition and IC50 values, retold here.

Format in all cases: biochemical
One experiment addresses T1, 12-lipoxygenase (Homo sapiens, UniProt P18054).
T1 construct: 12-lipoxygenase obtained from human platelets; from tissue; host or cells: human platelets
T1 sequence (P18054 1-663): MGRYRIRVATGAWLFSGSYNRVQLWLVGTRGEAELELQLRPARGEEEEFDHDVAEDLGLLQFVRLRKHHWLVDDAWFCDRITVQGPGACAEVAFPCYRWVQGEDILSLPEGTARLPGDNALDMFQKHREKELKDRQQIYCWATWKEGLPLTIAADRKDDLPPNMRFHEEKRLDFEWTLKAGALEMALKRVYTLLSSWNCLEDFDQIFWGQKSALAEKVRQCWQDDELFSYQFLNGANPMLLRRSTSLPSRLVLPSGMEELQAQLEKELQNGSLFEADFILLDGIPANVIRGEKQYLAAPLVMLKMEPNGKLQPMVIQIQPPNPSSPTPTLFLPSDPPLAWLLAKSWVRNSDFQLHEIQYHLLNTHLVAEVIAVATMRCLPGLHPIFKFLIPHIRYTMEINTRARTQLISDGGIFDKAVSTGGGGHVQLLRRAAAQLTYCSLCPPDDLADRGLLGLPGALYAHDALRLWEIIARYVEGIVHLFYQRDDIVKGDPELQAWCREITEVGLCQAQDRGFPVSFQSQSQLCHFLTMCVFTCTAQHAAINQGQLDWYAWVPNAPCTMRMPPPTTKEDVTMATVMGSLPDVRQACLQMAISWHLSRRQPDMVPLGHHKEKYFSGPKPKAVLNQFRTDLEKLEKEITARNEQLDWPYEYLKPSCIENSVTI
The experiment can be described thus: 12-lipoxygenase inhibition (12-lipoxygenase obtained from human platelets). Conditions: for inhibition at 10 µM: read-out: % Inhibition at Indicated Concentration, 12-lipoxygenase, 10 μM; for inhibition at 100 µM: read-out: % Inhibition at Indicated Concentration, 12-lipoxygenase, 100 μM. How it is done: (§1) The compounds of this invention are potent inhibitors of 5-, 12- and 15-lipoxygenase. An assay to determine 5-lipoxygenase activity was performed in incubations containing various concentrations of the test compound and the 20,000×G supernatant from 7.5×10^6 homogenized RBL-1 cells. Reactions were initiated by the addition of radiolabeled arachidonic acid and terminated by acidification and ether extraction. Reaction products were separated from nonconverted substrate by thin layer chromatography and measured by liquid scintillatiton spectroscopy. Inhibition of 5-lipoxygenase activity was calculated as the ratio of the amounts of product formed in the presence and absence of inhibitor.
(§2) The inhibitory activities of the compounds of this invention against 12- and 15-lipoxygenase can be determined in the foregoing assay in which 12-lipoxygenase obtained from human platelets, or 15-lipoxygenase obtained from soybean, is substituted for the 5-lipoxygenase-containing cell supernatant fraction.

In a further experiment the target is T2, 15-lipoxygenase (Glycine max, UniProt P08170).
T2 construct: 15-lipoxygenase obtained from soybean; from tissue; host or cells: soybean
T2 sequence (P08170 1-839): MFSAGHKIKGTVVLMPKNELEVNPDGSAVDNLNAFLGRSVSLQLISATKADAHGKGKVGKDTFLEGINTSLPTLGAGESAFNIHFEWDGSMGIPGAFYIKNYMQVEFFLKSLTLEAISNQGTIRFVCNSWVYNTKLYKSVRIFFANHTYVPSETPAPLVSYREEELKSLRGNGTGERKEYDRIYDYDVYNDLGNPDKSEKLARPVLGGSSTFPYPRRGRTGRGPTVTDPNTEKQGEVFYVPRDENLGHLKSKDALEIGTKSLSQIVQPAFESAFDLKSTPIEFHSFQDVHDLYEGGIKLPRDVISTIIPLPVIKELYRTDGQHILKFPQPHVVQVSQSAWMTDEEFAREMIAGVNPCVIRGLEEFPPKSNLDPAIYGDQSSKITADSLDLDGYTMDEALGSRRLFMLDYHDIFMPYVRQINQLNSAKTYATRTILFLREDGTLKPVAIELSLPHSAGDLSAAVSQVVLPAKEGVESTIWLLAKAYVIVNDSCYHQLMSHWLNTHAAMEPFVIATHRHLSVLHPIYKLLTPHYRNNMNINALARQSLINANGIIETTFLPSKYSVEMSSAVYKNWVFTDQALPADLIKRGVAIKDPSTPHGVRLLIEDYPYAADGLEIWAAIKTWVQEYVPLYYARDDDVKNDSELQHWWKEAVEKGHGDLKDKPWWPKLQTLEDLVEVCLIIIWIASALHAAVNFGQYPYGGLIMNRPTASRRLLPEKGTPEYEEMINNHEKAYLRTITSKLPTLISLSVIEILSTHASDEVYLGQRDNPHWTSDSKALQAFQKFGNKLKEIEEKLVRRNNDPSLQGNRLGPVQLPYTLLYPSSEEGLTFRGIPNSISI
The experiment can be described thus: 15-lipoxygenase inhibition (15-lipoxygenase obtained from soybean). Conditions: for inhibition at 10 µM: read-out: % Inhibition at Indicated Concentration, 15-lipoxygenase, 10 μM; for inhibition at 100 µM: read-out: % Inhibition at Indicated Concentration, 15-lipoxygenase, 100 μM. How it is done: as §1, §2

A further experiment concerns the target T3, 5-lipoxygenase (Rattus norvegicus, UniProt P12527).
T3 construct: 20,000×G supernatant from 7.5×10^6 homogenized RBL-1 cells; endogenous in cells; host or cells: RBL-1 cells (20,000xG supernatant of homogenate)
T3 sequence (P12527 1-673): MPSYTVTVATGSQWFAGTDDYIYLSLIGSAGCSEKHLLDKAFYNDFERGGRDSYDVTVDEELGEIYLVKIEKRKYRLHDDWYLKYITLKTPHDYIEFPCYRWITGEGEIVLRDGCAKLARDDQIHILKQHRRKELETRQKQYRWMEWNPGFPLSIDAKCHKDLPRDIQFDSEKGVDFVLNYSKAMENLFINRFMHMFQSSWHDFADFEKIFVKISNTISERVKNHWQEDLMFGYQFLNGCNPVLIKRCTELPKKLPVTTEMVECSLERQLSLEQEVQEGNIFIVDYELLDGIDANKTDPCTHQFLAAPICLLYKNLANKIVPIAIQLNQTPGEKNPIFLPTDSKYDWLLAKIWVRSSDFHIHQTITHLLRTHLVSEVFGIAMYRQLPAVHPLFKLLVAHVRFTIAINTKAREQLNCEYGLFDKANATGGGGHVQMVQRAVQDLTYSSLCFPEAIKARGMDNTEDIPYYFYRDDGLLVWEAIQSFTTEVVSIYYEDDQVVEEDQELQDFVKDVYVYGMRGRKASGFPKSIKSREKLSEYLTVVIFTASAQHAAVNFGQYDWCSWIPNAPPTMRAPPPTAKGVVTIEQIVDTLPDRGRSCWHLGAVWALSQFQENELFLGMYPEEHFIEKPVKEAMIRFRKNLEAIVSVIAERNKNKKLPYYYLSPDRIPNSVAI
The experiment can be described thus: 5-Lipoxygenase IC50 determination (20,000×G supernatant of homogenized RBL-1 cells, radiolabeled arachidonic acid). Conditions: RBL-1 cell 20,000×G supernatant. As to the method:
Reactions were initiated by the addition of radiolabeled arachidonic acid and terminated by acidification and ether extraction. Reaction products were separated from nonconverted substrate by thin layer chromatography and measured by liquid scintillatiton spectroscopy. Inhibition of 5-lipoxygenase activity was calculated as the ratio of the amounts of product formed in the presence and absence of inhibitor. […]

Turning to `O=C(C=Cc1ccc2ccccc2c1)NO` [Example 1, 3-(2-naphthyl)acrylohydroxamic acid], at 12-lipoxygenase, the inhibition at 10 µM was determined as 92% and the inhibition at 100 µM was determined as 100%. Further, at 15-lipoxygenase, the inhibition at 10 µM was found to be 2% and the inhibition at 100 µM turned out to be 19%.

Turning to `CN(O)C(=O)C=Cc1ccc2ccccc2c1` [Example 2, N-methyl 3-(2-naphthyl)acrylohydroxamic acid], the inhibition at 10 µM on 12-lipoxygenase came to 88%. This molecule also showed a half-inhibitory concentration (IC50) against 5-lipoxygenase of 260 nM. At 15-lipoxygenase, the inhibition at 10 µM is 43% and the inhibition at 100 µM was found to be 83%.

On to `CC(C)N(O)C(=O)C=Cc1ccc2ccccc2c1` [Example 3, N-isopropyl 3-(2-naphthyl)acrylohydroxamic acid], for which the results for the inhibition at 10 µM on 12-lipoxygenase and on 15-lipoxygenase were 75% and 31%, respectively. The values for the inhibition at 100 µM at 12-lipoxygenase and at 15-lipoxygenase were 84% and 63%, respectively. On 5-lipoxygenase, the half-maximal inhibitory concentration (IC50) is 150 nM.

Turning to `O=C(C=Cc1ccc2ccccc2c1)N(O)C1CCCCC1` [Example 4, N-cyclohexyl 3-(2-naphthyl)acrylohydroxamic acid], the inhibition at 10 µM at 12-lipoxygenase is 66%. It took 260 nM to reach half-maximal inhibition against 5-lipoxygenase (IC50). Further, at 15-lipoxygenase, the inhibition at 10 µM worked out at 43% and the inhibition at 100 µM worked out at 83%.

Turning to `O=C(C=Cc1ccc2ccccc2c1)N(O)c1ccccc1` [Example 5, N-phenyl 3-(2-naphthyl)acrylohydroxamic acid], the inhibition at 10 µM at 12-lipoxygenase came out at 82%; on 15-lipoxygenase it was 22%. Further, inhibition against 5-lipoxygenase was half-maximal at 200 nM (IC50). On 15-lipoxygenase, the inhibition at 100 µM was 30%.

Turning to `CC(=Cc1ccc2ccccc2c1)C(=O)NO` [Example 6, 2-methyl-3-(2-naphthyl)acrylohydroxamic acid], on 15-lipoxygenase, the inhibition at 10 µM came out at 45% and the inhibition at 100 µM came out at 100%.

For `CC(=Cc1ccc2ccccc2c1)C(=O)N(C)O` [Example 7, 2,N-dimethyl-3-(2-naphthyl)acrylohydroxamic acid], at 15-lipoxygenase, the inhibition at 10 µM came out at 37% and the inhibition at 100 µM is 88%.

As to `CN(O)C(=O)C(=Cc1ccc2ccccc2c1)c1ccccc1` [Example 8, N-methyl-3-(2-naphthyl)-2-phenyl acrylohydroxamic acid], at 15-lipoxygenase, the inhibition at 10 µM was 38% and the inhibition at 100 µM was 62%.

In the case of `CN(O)C(=O)C(=Cc1ccc2ccccc2c1)c1ccc(Cl)cc1` [Example 10, N-methyl-3-(2-naphthyl)-2-(4-chlorophenyl)acrylohydroxamic acid], the inhibition at 10 µM on 12-lipoxygenase was found to be 98%.

As to `CC(=CC(=O)N(C)O)c1ccc2ccccc2c1` [Example 12, 3,N-dimethyl-3-(2-naphthyl)acrylohydroxamic acid], on 15-lipoxygenase, the inhibition at 10 µM was 37% and the inhibition at 100 µM stood at 88%.

For `CN(O)C(=O)C=Cc1cc2ccccc2cc1[N+](=O)[O-]` [Example 13, N-methyl-3-(3-nitro-2-naphthyl)acrylohydroxamic acid], on 12-lipoxygenase, the inhibition at 10 µM was 81% and the inhibition at 100 µM stood at 97%. For the same molecule, on 15-lipoxygenase, the inhibition at 10 µM came to 19% and the inhibition at 100 µM is 49%.

Regarding `CCCCCC=Cc1ccc2ccc(C=CC(=O)N(C)O)cc2c1` [Example 14, N-methyl-3-[7-(1-heptenyl)-2-naphthyl]acrylohydroxamic acid], the inhibition at 10 µM on 12-lipoxygenase is 93%; on 15-lipoxygenase, 59%. The inhibition at 100 µM on 12-lipoxygenase was determined as 98%; on 15-lipoxygenase, 65%. Moreover, on 5-lipoxygenase, the midpoint of inhibition, the IC50, lay at 510 nM.

On to `CN(O)C(=O)C=Cc1cccc2ccccc12` [Example 15, N-methyl-3-(1-naphthyl)acrylohydroxamic acid], for which the inhibition at 10 µM at 12-lipoxygenase was 82%; at 15-lipoxygenase it was 29%. Moreover, the inhibition at 100 µM at 12-lipoxygenase stood at 100%; at 15-lipoxygenase, 88%. Besides, half-maximal inhibition on 5-lipoxygenase (IC50) was put at 200 nM.

`CN(O)C(=O)C=Cc1ccc([N+](=O)[O-])c2ccccc12` [Example 16, N-methyl-3-(4-nitro-1-naphthyl)acrylohydroxamic acid] came in with an IC50 at 5-lipoxygenase of 130 nM.

As to `O=C(CCC/C=C\c1ccc2ccccc2c1)NO` [Example 17, Z-6-(2-naphthyl)hex-5-enohydroxamic acid], at 5-lipoxygenase, the IC50 turned out to be 1600 nM. This IC50 is about 12-fold higher than that of the molecule before.

Turning to `O=C(CCc1ccc2ccccc2c1)NO` [Example 18, 3-(2-naphthyl)propiohydroxamic acid], the IC50 against 5-lipoxygenase worked out at 9700 nM. On 15-lipoxygenase, the inhibition at 10 µM stood at 12% and the inhibition at 100 µM amounted to 31%.

Consider `Cc1ccc2ccc(CCC(=O)NO)cc2c1` [Example 19, 3-(7-methyl-2-napthalene)propiohydroxamic acid], for which, on 12-lipoxygenase, the inhibition at 10 µM came out at 82% and the inhibition at 100 µM turned out to be 99%. For the same molecule, it took 2900 nM to reach half-maximal inhibition on 5-lipoxygenase (IC50). On 15-lipoxygenase, the inhibition at 10 µM was found to be 19% and the inhibition at 100 µM came to 33%.

As a reminder, the IC50 is the concentration that gives 50% inhibition.
